According to US20130253037A1, “AURORA A KINASE EFFECTORS” (PURDUE RESEARCH FOUNDATION, priority 2010, published 2013):

Experiments:
[1] = target: T1, AA-as7 kinase (Aurora A LI85V, L201G) (Mus musculus, UniProt P97477, L185V/L201G); assay: In vitro kinase assay with AA-as7 and TPX2; format: biochemical, murine; details: AA-as7; phosphodonor as labelled
T1 construct: the Aurora A mutant is the double mutant Aurora A (AA-as7); 6-His; made in house; host or cells: Sf9 insect cells (baculovirus, Bac-to-Bac)
T1 sequence (P97477 1-395 L185V/L201G): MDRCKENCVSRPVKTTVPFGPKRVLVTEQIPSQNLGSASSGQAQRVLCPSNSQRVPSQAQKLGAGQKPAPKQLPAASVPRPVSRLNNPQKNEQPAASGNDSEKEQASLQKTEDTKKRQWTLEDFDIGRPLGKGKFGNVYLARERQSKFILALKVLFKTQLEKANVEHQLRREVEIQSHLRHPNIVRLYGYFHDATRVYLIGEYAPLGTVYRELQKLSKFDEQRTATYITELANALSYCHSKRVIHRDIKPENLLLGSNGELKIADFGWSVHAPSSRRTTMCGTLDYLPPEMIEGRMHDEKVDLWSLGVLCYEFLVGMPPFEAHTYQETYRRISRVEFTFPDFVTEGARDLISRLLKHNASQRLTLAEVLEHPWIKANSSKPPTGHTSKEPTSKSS
Procedure: For in vitro labeling, Aurora A/TPX2 complex (on beads) was pre-incubated with 10 μM cold ATP for 10 min to activate the kinase. The beads were washed twice with kinase buffer, and then subjected to kinase assay with 2-5 μg of recombinant protein (such as PHLDA) and 1 μCi of [γ-^32P] ATP. Reactions were terminated by adding SDS sample buffer, separated by SDS-PAGE gel, transferred to PVDF membrane and exposed to Biomax MS film. Aurora A kinase assays were conducted using 1 μCi of [γ-^32P] ATP and 3 μg of Aurora A substrate peptide in a final volume of 30 μl at 30° C. as reported before (Sun, et al, (2008a) Mol. Biol. Cell 19, 3052-3069).
IC50 values were determined by fitting the data to a sigmoidal dose response curve using GraphPad Prism 4.0 software. Km and Vmax values were derived from the assay described above using various concentrations of AA peptide substrate and ATP. Km and Vmax values were determined using GraphPad Prism 4.0 software.

[2] = target: Aurora B-as7 (L138V, L154G-AB) kinase (Homo sapiens, UniProt Q96GD4, L138V/L154G); assay: In vitro kinase assay with AB-as7; format: biochemical; details: phosphodonor as labelled
Sequence of Aurora B-as7 (L138V, L154G-AB) kinase (Q96GD4 whole entry L138V/L154G): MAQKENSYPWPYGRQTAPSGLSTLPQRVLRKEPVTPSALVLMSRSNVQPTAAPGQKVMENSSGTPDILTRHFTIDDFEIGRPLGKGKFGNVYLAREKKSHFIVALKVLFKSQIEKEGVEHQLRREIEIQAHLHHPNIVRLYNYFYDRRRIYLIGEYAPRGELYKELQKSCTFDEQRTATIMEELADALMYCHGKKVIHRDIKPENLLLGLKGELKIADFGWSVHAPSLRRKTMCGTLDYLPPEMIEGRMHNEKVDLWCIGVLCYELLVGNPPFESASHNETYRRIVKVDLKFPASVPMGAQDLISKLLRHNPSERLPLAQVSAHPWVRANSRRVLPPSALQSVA

[3] = test system: wt kinases present in the MDA cell lysate; assay: In vitro kinase reaction with MDA cell lysate and [γ-32P] Phenethyl-ATP; format: biochemical; details: cell lysate alone, without AA-as7/TPX2
Procedure: To prepare a labeled sample for 2D gel electrophoresis, kinase reactions with whole cell lysate or fractionated lysate were carried out as published before (Sun, et al, (2008a) Mol. Biol. Cell 19, 3052-3069). Gel spots were manually excised and automatically processed for peptide mapping experiments using a Micromass MassPREP Station in conjunction with manufacturer specified protocols.
An in vitro kinase reaction was performed using unsynchronized MDA cell lysate, [[γ-^32P] Phenethyl-ATP and Aurora A-as7/TPX2 to identify novel Aurora A substrates. […] Phenethyl ATP is specific for the engineered kinase and is not accepted by wt kinases present in the cell lysate. In contrast, when AA-as7 and TPX2 were added to the cell lysate along with Phenethyl ATP, it phosphorylated several proteins. These proteins are the direct targets of Aurora A. To isolate these targets, proteins were separated using 2D gel electrophoresis, isolated and visualized by autoradiography. Radiolabeled proteins were excised from gel and subsequent to trypsin digestion the peptide cleavage products were identified by tandem mass spectrometry. Several Aurora A substrates were identified including PHLDA1, p53 and vimentin.

Kcat [1]: 13400 min⁻¹ | Km [1]: 11.6 µM | Vmax [1]: 3.02 × 10^6 | Kcat [2]: 372 min⁻¹ | Km [2]: 11.4 µM | Vmax [2]: 7.44 × 10^4
Structure (SMILES): O=P(O)(O)OP(=O)(O)OP(=O)(O)OC[C@H]1O[C@@H](n2cnc3c(NCCc4ccccc4)ncnc32)[C@H](O)[C@@H]1O [N^6-phenethyl ATP, N^6-(phenethyl) ATP]
labelling signal in cell lysate [3]: no signal
